Measurements taken from US20230094568A1, “METHOD FOR SUPPRESSING DIFFERENTIATION OF PLURIPOTENT STEM CELLS” (KANEKA CORPORATION, priority 2020, published 2023).

Test system: Human iPS cell WTC-11 strain
Assay: Quantitative real-time PCR of marker genes after suspension culture (Example 2)
Assay type: cell-based
Settings: WTC-11, day 10 of suspension culture, inhibitor(s) in medium
Experimental: After the EDTA solution was sucked up, StemFit® AK02N medium was added to the dish, cells were detached with a cell scraper, and then dispersed into single cells by pipetting. […] Into a 6-well plate for suspension culture (Sumitomo Bakelite Co., Ltd.), 4 mL of the cell suspension was seeded per well. On a rotary shaker (Optima Co., Ltd.), the plate into which the cells had been seeded was rotated along a circle having a rotation width (diameter) of 25 mm in the horizontal plane at a speed of 90 rpm, and suspension culture was performed under an environment at 37° C. and 5% CO2. Subculture was performed on day 5 of culture as the day on which the cells were seeded was defined as day 0 of culture, and suspension culture was performed until day 10 of culture. Medium exchange was performed on day 2, 4, 7, and 9 of culture. […] On day 5 of culture, a cell aggregate and culture supernatant were collected from each well into a centrifuge tube, left to stand for about 5 minutes to precipitate the cell aggregate, and the culture supernatant was removed. […]
Quantitative real-time PCR analysis was performed with a procedure shown in the following. […] Quantitative real-time PCR analysis was carried out by using a TaqMan® QuantStudio3 real-time PCR system (Thermo Fisher Scientific).

SMILES	ACTB-normalized relative gene expression level (2^−ΔCt) OCT4
O=C(Nc1cccc2cccnc12)c1ccc(N2C(=O)[C@@H]3[C@H](C2=O)[C@@H]2C=C[C@H]3C2)cc1 [Comparative Example 2, 4-(1,3,3a,4,7,7a-hexahydro-1,3-dioxo-4,7-methano-2H-isoindol-2-yl)-N-8-quinolinyl-benzamide]	2.05
COc1ccc2c(c1)c(C1=C(c3c[nH]c4ccccc34)C(=O)NC1=O)cn2CCCN(C)C [Comparative Example 3, 3-[1-[3-(dimethylamino)propyl]-5-methoxy-1H-indol-3-yl]-4-(1H-indol-3-yl)-1H-pyrrole-2,5-dione]	3.30 × 10^−3
